“Also recorded” adds a separate entry of the source. Like-named read-outs stand apart in the source and are kept apart here.
Legend:
[1] = system: isolated mouse airway smooth muscle cells; test: Measurement of global [Ca2+]i (fluo-3) in freshly isolated mouse airway smooth muscle cells; type: cell-based; details: for effect on chloroquine-induced reversal of the KCl-induced increase in [Ca2+]i: PTX 1 μg/ml 6-8 hours, gallein 20 μM, Anti-βγ 1 μM, U73122, 2-ABP at concentrations of FIG. 5; for chloroquine-induced increase in global [Ca2+]i, % of control: resting cells, PTX 1 μg/ml 6-8 hr, gallein 20 μM 30 min, Anti-βγ 1 μM 1 hr, U73122 3 μM, 2-APB 50 μM; for effect on chloroquine's reduction of the Mch-induced [Ca2+]i increase: 10 μM FPL, single cell level
Experimental: (§1) The tracheas and bronchi were dissected free from the surface of the connective tissue. The tissue was incubated in the dissociation medium containing papain 30 unit/ml, 1 mM DTT, and 0.5 mg/ml BSA, at 35° C. for 30 min, and then transferred to a dissociation medium containing 3 unit/ml collagenase F and 0.5 mg/mL BSA, and incubated at 35° C. for another 15 min to produce isolated ASM cells. Finally, the tissue was agitated with a fire polished wide-bore glass pipette to release the cells.
Fluorescence images using fluo-3 as a calcium indicator were obtained using a custom-built wide-field digital imaging system. The camera was interfaced to a custom made inverted microscope, and the cells were imaged using either a 20× Nikon 1.3 NA for global [Ca^2+] measurement or a 60× Nikon 1.4 NA oil for Ca^2+ spark measurement. […] The images were acquired at the speed of either 1 Hz for global [Ca^2+] measurement or 50 Hz for Ca^2+ spark measurement. Subsequent image processing and analysis was performed off line using a custom-designed software package, running on a Linux/PC workstation. [Ca^2+]i was represented as ΔF/F0*100 with F calculated by integrating fluo-3 over entire cells for global [Ca^2+], or just the value at the brightest pixel (i.e., epicenter pixel) for Ca^2+ sparks.
All chemicals, except fluo-3 (Invitrogen Co, San Diego, Calif., USA), gallein (Tocris Bioscience, Bristol, United Kingdom), and Anti-βγ blocking peptide (AnaSpec, Fremont, Calif., USA), were purchased from Sigma-Aldrich Co. (St. Louis, Mo., USA). For single cell studies, agonists and antagonists were applied locally to cells via a picospritzer at a constant pressure, so that the duration of its action and concentration could be controlled easily.

[2] = system: mouse airways (trachea and bronchi rings); test: Mouse airway smooth muscle contraction bioassay (isometric tension); details: for relaxation of smooth muscle from airways: mouse; for reversal (relaxation) of KCl-induced tension: 60 mM KCl, chloroquine, denatonium 1 mM
From the text: C57/BL6 mice at 7-12 weeks of age were sacrificed and the entire respiratory trees were rapidly removed and immersed in Krebs physiologic solution containing (in mM) 118.07 NaCl, 4.69 KCl, 2.52 CaCl2, 1.16 MgSO4, 1.01 NaH2PO4, 25 NaHCO3, and 11.10 glucose. Trachea and bronchi were isolated and cut into rings (4 mm in length). The rings were mounted on a wire myograph chamber (Danish Myo Technology, Aarhus, Denmark), and a PowerLab recording device (AD Instruments) was used to record isometric tension. The ring preparations with zero tension were immersed in 5 ml of Krebs physiologic solution, bubbled with 95% 02 and 5% CO2 at 37° C. The basal tones were set at the level of approximately 2 mN.

[3] = system: human intrapulmonary bronchi; test: Force measurement in human intrapulmonary airways; details: for relaxation of smooth muscle from airways: human; for reversal (relaxation) of KCl-induced tension: KCl (60 mM), chloroquine, denatonium 1 mM
From the text: Trachea and bronchi were isolated and cut into rings (4 mm in length). The rings were mounted on a wire myograph chamber (Danish Myo Technology, Aarhus, Denmark), and a PowerLab recording device (AD Instruments) was used to record isometric tension. […] Human lung tissue was obtained (with informed consent) from patients undergoing surgery (lobectomy) for lung cancer at the Department of Surgery and the Department of Pathology at the Univ. of Massachusetts Memorial Med Ctr (Worcester, Mass.). The tumors were identified as nonsmall cell carcinoma (adenocarcinoma, squamous cell carcinoma). Intrapulmonary airways were dissected out and cleaned free of the connective tissues. These airways were either cut into the rings ([…]) for force measurements the same as for mouse airway tissues, or digested with the same enzymes, dissociation medium and isolation procedure as for single mouse ASM cells. The experimental protocols on human tissues were approved by the Committee for Protection of Human Subjects in Research at the University of Massachusetts Medical School (Protocol 13590 to R.Z).

human pulmonary arteries = test: Relaxation of human pulmonary arteries pre-contracted by KCl; details: for relaxation of smooth muscle from pulmonary artery: human; for relaxation of human pulmonary arteries: pre-contracted by KCl
From the text: Human specimen were provided by Univ. Mass. Memorial Medical Center.

[4] = system: mouse internal anal sphincter; test: Spontaneous tone of mouse internal anal sphincter; details: for relaxation of smooth muscle from internal anal sphincter: mouse
From the text: The spontaneous tone contributes about 70% of the basal tonus that maintains fecal continence in human and animals.

mouse urethra = test: Mouse urethral contraction induced by contractile agonists; details: for relaxation of smooth muscle from urethra: mouse
From the text: […] were pretreated with bitter tastants, and then stimulated with contractile agonists. Contractile agonists alone were used as the control.

[5] = system: isolated smooth muscle cells from mouse internal anal sphincter; test: [Ca2+]i in isolated smooth muscle cells from mouse internal anal sphincter; type: cell-based; details: CDCA 100 μM; chloroquine 1 mM; denatonium 1 mM
From the text: Fluorescence images using fluo-3 as a calcium indicator were obtained using a custom-built wide-field digital imaging system. The camera was interfaced to a custom made inverted microscope, and the cells were imaged using either a 20× Nikon 1.3 NA for global [Ca^2+] measurement or a 60× Nikon 1.4 NA oil for Ca^2+ spark measurement. The 488 nm line of an Argon Ion laser provided fluorescence excitation, with a shutter to control exposure duration, and emission of the Ca^2+ indicator was monitored at wavelengths >500 nm. The images were acquired at the speed of either 1 Hz for global [Ca^2+] measurement or 50 Hz for Ca^2+ spark measurement. Subsequent image processing and analysis was performed off line using a custom-designed software package, running on a Linux/PC workstation. [Ca^2+]i was represented as ΔF/F0*100 with F calculated by integrating fluo-3 over entire cells for global [Ca^2+], or just the value at the brightest pixel (i.e., epicenter pixel) for Ca^2+ sparks.

[6] = system: pulmonary artery from mouse; test: Relaxation of smooth muscle from mouse pulmonary artery
Mouse ASM cells = test: Measurement of cell shortening in mouse ASM cells; type: cell-based; details: Mch 100 μM; n=21
Experimental: as §1, with “the cells. Myocytes were placed into a recording chamber superfused with the bath solution for patch clamp experiments at room temperature. Cells loaded with Fluo-3 were imaged using a custom-built wide-field digital imaging system and their lengths were determined using custom software to manually trace down the center of the cell.” for “the cells.”

mouse airway strips = details: all at 1 mM; [Ca2+]i clamped; α-toxin permeabilized
[7] = pretreatment, Chloro 1 mM, CDCA 100 μM

## NCCOB(c1ccccc1)c1ccccc1 [2-APB, 2-Aminoethoxydiphenyl borate]
[1]
  effect on chloroquine-induced reversal of the KCl-induced increase in [Ca2+]i: failed to alter
  chloroquine-induced increase in global [Ca2+]i, % of control: −10.5±7.3%

## C[C@H](CCC(=O)O)[C@H]1CC[C@H]2[C@@H]3[C@H](O)C[C@@H]4C[C@H](O)CC[C@]4(C)[C@H]3CC[C@]12C [CDCA, chenodeoxycholic acid]
[2]
  relaxation of smooth muscle from airways: fully relax
[3]
  relaxation of smooth muscle from airways: fully relax
Human pulmonary arteries
  relaxation of smooth muscle from pulmonary artery: fully relax
[4]
  effect on spontaneous tone: reversed totally
  relaxation of smooth muscle from internal anal sphincter: fully relax
Mouse urethra
  relaxation of smooth muscle from urethra: fully relax
Mouse urethra; pretreatment, CDCA 100 μM
  effect on 10 μM methacholine-induced contraction: inhibited
Mouse urethra; [7]
  effect on 60 mM KCl-induced contraction: blocked
  effect on alpha1-agonist phenylephrine-induced contraction: inhibited
[5]
  effect on the increase in [Ca2+]i induced by 60 mM KCl: reversibly inhibited
[6]
  relaxation of smooth muscle from pulmonary artery: fully relax

## C[C@H](CCC(=O)O)[C@H]1CC[C@H]2[C@@H]3CC[C@@H]4C[C@H](O)CC[C@]4(C)[C@H]3C[C@H](O)[C@]12C [DCA, deoxycholic acid]
[2]
  relaxation of smooth muscle from airways: fully relax
[3]
  relaxation of smooth muscle from airways: fully relax
[3]; human airways
  reversal (relaxation) of KCl-induced tension: fully relaxed
Human pulmonary arteries
  relaxation of smooth muscle from pulmonary artery: fully relax
  relaxation of human pulmonary arteries: markedly relaxed
[4]
  relaxation of smooth muscle from internal anal sphincter: fully relax
Mouse urethra
  relaxation of smooth muscle from urethra: fully relax
[6]
  relaxation of smooth muscle from pulmonary artery: fully relax

## COC(=O)c1c(C)[nH]c(C)c1C(=O)c1ccccc1Cc1ccccc1 [FPL, FPL 64176]
[1]
  effect on chloroquine's reduction of [Ca2+]i in cells stimulated by KCl: prevented
  effect on chloroquine's reduction of the Mch-induced [Ca2+]i increase: prevent chloroquine from reducing
[1]; listed as FPL 64176
  effect on chloroquine's reduction of the Mch-induced [Ca2+]i increase: prevented chloro from reversing
  effect on chloroquine's reduction of [Ca2+]i in cells stimulated by KCl: inhibited
[2]; KCl 60 mM
  effect on chloroquine-induced relaxation in ASM pre-contracted by KCl: dose-dependently reversed; also recorded: dose-dependently inhibited
[2]; tissue level
  effect on chloroquine-induced relaxation of Mch precontracted airways: prevent chloroquine from relaxing; also recorded: dose-dependently reversed

## [Cl-].[K+] [KCl]
[1]; KCl 60 mM, without diltiazem, n=9
  KCl-induced increase in ΔF/F0: 122±19%

## CC(=O)OC(C)C[N+](C)(C)C (stereo not shown) [Mch, methacholine]
[1]; Mch 100 μM
  increase in fluo-3 fluorescence (ΔF/F0): 162±26%
[2]; 1 mM chloro, 100 μM Mch
  contraction (tension) of mouse airways at rest: robust contraction
[2]; Ca2+ free medium
  tension generated in Ca2+ free medium, % of that in the presence of extracellular Ca2+: less than 20%
[2]; chloroquine 10 μM-1 mM, Mch 0.1-10 μM
  contraction (force) of mouse airways at rest: induced contraction markedly
Mouse ASM cells
  cell shortening: 49±8%

## COc1ccc2c(c1)CC[C@@H]1[C@@H]2CC[C@]2(C)[C@@H](NCCCCCCN3C(=O)C=CC3=O)CC[C@@H]12 [U73122]
[1]
  effect on chloroquine-induced reversal of the KCl-induced increase in [Ca2+]i: failed to alter
  chloroquine-induced increase in global [Ca2+]i, % of control: 18.0±5.5%

## CC[N+](CC)(CC(=O)Nc1c(C)cccc1C)Cc1ccccc1 [denatonium]
[2]; mouse airways
  reversal (relaxation) of KCl-induced tension: fully reversed; also recorded: relaxed
[3]; human airways
  reversal (relaxation) of KCl-induced tension: fully reversed
Human pulmonary arteries
  relaxation of human pulmonary arteries: failed to exert any effect
[4]
  effect on spontaneous tone: enhanced
[5]
  effect on the increase in [Ca2+]i induced by 60 mM KCl: did not affect
Mouse airway strips
  relaxation of ASM at fixed [Ca2+]i: failed to relax

## COc1ccc([C@@H]2Sc3ccccc3N(CCN(C)C)C(=O)[C@@H]2OC(C)=O)cc1 [diltiazem]
[1]; 10 μM diltiazem pretreatment, KCl 60 mM, n=9
  KCl-induced increase in ΔF/F0 after diltiazem pretreatment: 16.8±10%
[1]; prior application of diltiazem 100 μM
  effect on KCl (60 mM)-induced increase in [Ca2+]i: blocked
[1]; single isolated mouse ASM cells, n=12
  reversal of the Mch-induced increase in [Ca2+]: 90.2±2.9%
[2]; KCl 60 mM, n=6
  reversal of the KCl-induced contraction: 93.1±4.8%
[2]; mouse airways
  reversal of Mch-induced airway force generation: dose-dependently reversed
  reversal (relaxation) of KCl-induced tension: relaxed
[3]; human airways, 10 μM Mch
  reversal of Mch-induced airway force generation: dose-dependently reversed
[3]; human airways
  reversal (relaxation) of KCl-induced tension: relaxed

## O=C1OC2(c3ccccc31)c1ccc(O)c(O)c1Oc1c2ccc(O)c1O [gallein]
[1]
  effect on chloroquine-induced reversal of the KCl-induced increase in [Ca2+]i: prevented
  chloroquine-induced increase in global [Ca2+]i, % of control: 19.9±8.5%

## MPS-phosducin-like protein C terminus [Anti-βγ]
[1]
  effect on chloroquine-induced reversal of the KCl-induced increase in [Ca2+]i: prevented
  chloroquine-induced increase in global [Ca2+]i, % of control: 18.4±4.8%

## pertussis toxin [PTX]
[1]
  effect on chloroquine-induced reversal of the KCl-induced increase in [Ca2+]i: prevented
  chloroquine-induced increase in global [Ca2+]i, % of control: 21.1±8.6%
